This is an account of results in patent US9682928B2 (NeuroPro Therapeutics, Inc., priority 2009, dated 2017).

Where two headings read alike, the source gives them in different places.

One assay concerns Sprague-Dawley rats. The experiment in a line: Epileptiform activity induced by i.v. kainic acid in urethane-anesthetized rats. The following applies: intravenous, cumulative dose 40-60 mg/kg. It is filed as in vivo, rat. On the procedure: Body temperature was monitored using a rectal temperature probe and maintained at 35-37° C. with a heating pad; heart rate (EKG) was continuously monitored. The jugular vein was cannulated on one side for intravenous drug administration. Rats were placed in a Kopf stereotaxic device (with the top of the skull level), and a bipolar stainless-steel microelectrode insulated to 0.5 mm of the tip was inserted to a depth of 0.5-1.2 mm from the cortical surface to record electroencephalographic (EEG) activity in the fronto-parietal cortex. In some experiments, a 2M NaCl-containing pipette was lowered to a depth of 2.5-3.0 mm to record hippocampal EEG. Data were stored on VHS videotape and analyzed off-line.
Following the surgical preparation and electrode placement, animals were allowed to recover for 30 minutes before the experiments were initiated with an injection of kainic acid (10-12 mg/kg i.v.). […] Experiments were terminated with the intravenous administration of urethane. Animal care was in accordance with NIH guidelines and approved by the University of Washington Animal Care Committee.

Assay [1] relates to rats. In words: Contextual fear conditioning in rats. In kind it is in vivo, rat. The following applies: I.V.; furosemide 100 mg/kg, bumetanide 50 mg/kg. On the procedure:
Contextual fear conditioning involves pairing an aversive event, in this case moderate foot shock, with a distinctive environment. The strength of the fear memory is assessed using freezing, a species-typical defensive reaction in rats, marked by complete immobility, except for breathing. […] However, if they are allowed to explore the distinctive environment sometime before the immediate shock, they show intense anxiety and fear when placed back into the same environment. By procedurally dividing contextual fear conditioning into two phases, the effects of treatments on memory for the context (specifically a hippocampus based process) from learning the association between context and shock or experiencing the aversiveness of the shock (which depend upon emotional response circuitry including amygdala) were separately studied. […] The experiment employed 24 rats. […] Each rat was again placed into the same environment for 8 min during which time freezing was measured, as an index of Pavlovian conditioned fear. […] Measurement of freezing was accomplished through an overhead video camera connected to the microcomputer and was automatically scored using a specialty piece of software, FreezeFrame (OER Inc., Reston, Va.) Total freezing time was analyzed in a one-way analysis of variance (ANOVA) test, with drug dose as the […] factor.

Assay [2] deals with rats. In words: Fear potentiated startle (FPS) test in rats. In kind it is in vivo, rat. The settings on record: i.v.; furosemide 100 mg/kg, bumetanide 70 mg/kg. Here is the method:
FPS is a commonly used assessment of therapeutic value of anxiolytic compounds in the rat. Rats received a 30 min period of habituation to the FPS apparatus. 24-hr later baseline startle amplitudes were collected. The rats will be divided into two matched groups based on baseline startle amplitudes. Following baseline startle amplitude collection 20 light/shock pairings were delivered on 2 sessions over 2 consecutive days (i.e., 10 light/shock pairings per day). On the final day, one group of rats received an injection (i.v.) of a bumetanide analog and the other group received vehicle only. Immediately following injections, startle amplitudes were assessed during startle alone trials and startle plus fear (light followed by startle) trials. Fear potentiated startle (light+startle amplitudes minus startle alone amplitudes) was compared between the treatment groups.
Animals were trained and tested in four identical stabilimeter devices (Med-Associates). Briefly, each rat was placed in a small Plexiglas cylinder. The floor of each stabilimeter consists of four 6-mm-diameter stainless steel bars spaced 18 mm apart through which shock can be delivered. Cylinder movements result in displacement of an accelerometer where the resultant voltage is proportional to the velocity of the cage displacement. Startle amplitude is defined as the maximum accelerometer voltage that occurs during the first 0.25 sec after the startle stimulus is delivered. The analog output of the accelerometer is amplified, digitized on a scale of 0-4096 units and stored on a microcomputer. Each stabilimeter is enclosed in a ventilated, light-, and sound-attenuating box. All sound level measurements were made with a Precision Sound Level Meter. The noise of a ventilating fan attached to a sidewall of each wooden box produces an overall background noise level of 64 dB. The startle stimulus is a 50 ms burst of white noise (5 ms rise-decay time) generated by a white noise generator. The visual conditioned stimulus used was illumination of a light bulb adjacent to the white noise source. The unconditioned stimulus was a 0.6 mA foot shock with duration of 0.5 sec, generated by four constant-current shockers located outside the chamber. The presentation and sequencing of all stimuli were under the control of the microcomputer.
FPS procedures consisted of 5 days of testing; during days 1 and 2 baseline startle responses were collected, days 3 and 4 light/shock pairings were delivered, day 5-testing for fear potentiated startle was conducted.
Matching. On the first two days all rats were placed in the Plexiglas cylinders and 3 min later presented with 30 startle stimuli at a 30 sec interstimulus interval. An intensity of 105 dB was used. […]

For the next assay, the system named is primate. The experiment in a line: Acute primate seizure models. The following applies: in vivo. The source says:
FIG. 13 depicts epileptiform spikes and bursts generated using software for the automatic quantification epileptiform activity. FIG. 13A depicts after-discharge activity that was elicited by 4 seconds of electrical stimulation to primate sensory cortex. The software developed by Haglund and Hochman (2007) finds the envelope around a burst of spikes and calculates the duration of the burst, the number of spikes within the burst, and the average spike amplitude of all spikes comprising the burst.
FIG. 13B depicts a typical spike generated by an acute bicuculline focus in primate motor cortex. The bicuculline model generates epileptiform activity that is similar to spontaneous interictal spiking in human subjects. Analysis of the data by the software identifies the time of occurrence of each spike and its peak-to-peak amplitude. This software can automatically process entire data sets consisting of hours of recorded data from multiple traces and generate an output of the data. Statistical analysis of data sets from multiple experiments can then be used to analyze the effects of various treatments (e.g., compounds that suppress epliptiform activity). See Haglund and Hochman (2007) “Imaging of Intrinsic Optical Signals in Primate Cortex during Epileptiform Activity.” Epilepsia 48(Suppl. 4): 65-74; See also Haglund and Hochman (Feb. 23, 2005) J. Neurophysiol. 94: 907-918.

In a further assay the test system is human subjects. The settings on record: cited from earlier work.

Protocol for rat hippocampal slices: Sprague-Dawley rats (males and females; 25-35 days old) were decapitated, the top of the skull was rapidly removed, and the brain chilled with ice-cold oxygenated slicing medium. […] A hemisphere of brain containing hippocampus was blocked and glued (cyanoacrylic adhesive) to the stage of a Vibroslicer (Frederick Haer, Brunsick, Me.). […] In the recording chamber, the slices were perfused with oxygenated recording medium at 34-35° C. […] In most slice experiments, simultaneous extracellular field electrode recordings were obtained from CA1 and CA3 areas. A bipolar tungsten stimulating electrode was placed on the Schaffer collaterals to evoke synaptically-driven field responses in CA1. Stimuli consisted of 100-300 μsec duration pulses at an intensity of four times the population-spike threshold. After discharges were evoked by a 2 second train of such stimuli delivered at 60 Hz. […] The tissue was allowed to recover for 10 minutes between stimulation trials. In each experiment, the initial response of CA1 to synaptic input was first tested by recording the field potential evoked by a single stimulus pulse. […] Rat hippocampal slices, prepared as described above, were perfused with a high-K^+ solution until extended periods of spontaneous interictal-like bursting were recorded simultaneously in CA3 (top traces) and CA1 (lower traces) pyramidal cell regions (FIGS. 18A and 18B). […] Hippocampal slices were prepared from Sprague-Dawley adult rats as described previously. Transverse hippocampal slices 100 μm thick were cut with a vibrating cutter. Slices typically contained the entire hippocampus and subiculum. After cutting, slices were stored in an oxygenated holding chamber at room temperature for at least one hour before recording. […] In some experiments, normal or low-chloride medium was used containing bicuculline.

`NS(=O)(=O)c1cc(C(=O)O)c(NCc2ccco2)cc1Cl` [Furosemide]: in the assay with Sprague-Dawley rats, the “Kainic acid-evoked seizure activity (electrical status epilepticus)” value is given as “blocked seizure activity” and the “Latency to block of seizure activity” value is 30 to 45 min. For the same compound, the “Freezing vs vehicle alone” value in the assay on rats [1] was “significantly less freezing”. In addition, in the assay with rats [2], the “Difference score on the test day vs vehicle alone” value is given as “statistically significantly lower difference score” and the “Difference score one week after treatment vs vehicle alone” value was “higher difference score”. In addition, the “Suppression of epileptiform activity” value with primate is reported as “suppresses epileptiform activity”. Moreover, in the assay with rat hippocampal slices, the “Minimum concentration required to block both the after discharges and optical changes” value was 1.25 mM. Moreover, in the assay on rat hippocampal slices (0-Ca2+ experiments, 5 mM furosemide), the “Latency to block of bursting” value lay in the range of 15 to 20 min. Also, the “Stimulation-evoked after discharge activity and optical changes” value with rat hippocampal slices (2.5 mM furosemide, 20 minutes of perfusion) is on record as “blocked”. In addition, the “Spontaneous bursts in high-K+ (10 mM) medium” value with rat hippocampal slices (2.5 mM furosemide, after 45 minutes of perfusion) is given as “blocked in a reversible manner”. The “Latency to block of bursting” value in the assay on rat hippocampal slices (all other protocols, 2.5 mM furosemide) is 20 to 60 min. For the same compound, the “Anticonvulsant resistant bursts after 3 hours of 0-Mg medium” value in the assay on rat hippocampal slices (one hour after the addition of furosemide) is “blocked”. Besides, in the assay with human subjects (8 patients), the “Average reduction in the duration of stimulation-evoked after-discharge activity” value is on record as 85%. The “Average reduction in spiking frequency” value with human subjects (five patients, 20 mg intravenous bolus) is listed as “approximately 60%”. Further, in the assay on human subjects (five patients, 9.6 s prior to furosemide), the “Mean interspike interval following furosemide treatment” value is 21.9 s. In the assay on human subjects (of 8 patients), the “Patients with complete blockade of after-discharge activity” value is listed as 4 patients; the “Patients with reduction by more than 50% of duration and amplitude of after-discharge activity” value was 4 patients.
